# Test results taken from US20250054624A1, “METHODS AND SYSTEMS FOR DIGITAL PATHOLOGY ASSESSMENT OF CANCER VIA DEEP LEARNING” (Artera Inc., priority 2023, published 2025).
# “Also recorded” adds a separate entry of the source. Like-named read-outs stand apart in the source and are kept apart here.
# Legend:
# [1] = test system: nonmetastatic castration-resistant prostate cancer (nmCRPC); settings: cited from earlier work
# [2] = test system: nonmetastatic castration-resistant prostate cancer (nmCRPC); test: SPARTAN phase III randomized placebo-controlled trial; outcomes by treatment group and MMAI risk group; format: in vivo, human; settings: for PFS2 hazard ratio (HR) for apalutamide compared to placebo: second progression-free survival; for MFS HR, variable Treatment, Cox regression multivariable analysis / OS HR, variable Treatment, Cox regression multivariable analysis / PFS2 HR, variable Treatment, Cox regression multivariable analysis: all patients
# From the text: The addition of apalutamide (APA) to androgen deprivation therapy (ADT) improved metastasis-free survival (MFS) and second progression-free survival (PFS2) among patients with nonmetastatic castration-resistant prostate cancer (nmCRPC). A digital histopathology-based multimodal AI (MMAI) algorithm as described herein was trained to evaluate whether MMAI could define risk of progression among nmCRPC patients treated with APA or placebo in the SPARTAN trial.
# Patients enrolled in the SPARTAN trial with available H&E-stained biopsy slides from their primary diagnosis were included. H&E slides were digitized. Baseline clinical parameters to generate MMAI scores were Gleason score, age, T stage, and PSA. MMAI scores for distant metastasis (DM) were generated, ranging from 0 to 1. Patients were further categorized into MMAI non-high-risk and high-risk groups using a score cutoff. Kaplan Meier estimates were calculated for PFS2 and MFS; comparisons were performed using log-rank test and Cox proportional-hazards regression for treatment arms and MMAI risk groups. […] was used to evaluate the interaction between treatment arms and risk groups.
# SPARTAN (NCT01946204) was an international, multicenter, randomized, double-blinded, placebo-controlled, phase III clinical trial that evaluated the efficacy of apalutamide in improving MFS in men with nmCRPC. […] These patients were considered at high risk for the development of metastases, as indicated by a PSA doubling time of 10 months or less during continuous ADT.
# Participants were randomly assigned 2:1 to receive ongoing ADT with either apalutamide (240 mg daily) or a matched placebo. A primary endpoint of the study was MFS, defined as the duration from randomization to the first detection of distant metastasis on conventional imaging (as determined on central review by independent radiologists blinded to patient identifiers and treatment) or death from any cause, whichever occurred first. Secondary endpoints included second progression-free survival (PFS2), defined as the time from randomization to progression on first subsequent therapy, and overall survival (OS), defined as the time from randomization to death.
# MMAI scores were computed for each subject within the analysis cohort using whole slide images digitized at 20× resolution from H&E-stained prostate primary slides obtained at the time of diagnosis. These scores, ranging from 0 to 1, represent a continuum of increasing probabilities for clinical events such as DM and PCSM. Subjects' MMAI scores for risk of DM categorized patients into MMAI risk groups (low, intermediate and high) using predefined clinical thresholds established for patients with localized prostate cancer based upon clinician input. For the purpose of this analysis, patients were categorized as either MMAI high risk or MMAI non-high risk (MMAI score with >10% estimated 10-year DM rates defined high-risk), with the latter group combining the low and intermediate risk categories for comparison.
# Summary statistics of baseline characteristics for the analysis cohort, treatment subgroups and the overall clinical trial cohort were reported to evaluate comparability. Kaplan-Meier estimates were calculated for MFS, PFS2, and OS for analysis by treatment group and MMAI risk groups. Comparisons were performed using log-rank test and Cox proportional hazards regression models for treatment arms, MMAI risk scores, and MMAI risk group. The reporting unit for continuous MMAI scores in the Cox models is standard deviation (SD), meaning that each 1-unit increase corresponds to 1 SD increase in MMAI score. The interaction between treatment arm and MMAI risk scores was evaluated using a Cox proportional hazards model. Treatment effects within each MMAI risk subgroup were also assessed to measure the relative treatment effect between arms. […]
# [3] = overall SPARTAN study, in words
# [4] = all patients of analysis cohort
# [5] = model with MMAI risk group (high/non-high) and MMAI risk group:Treatment interaction
# [6] = model with continuous MMAI risk score and MMAI risk score:Treatment interaction
structure (smiles),measurement,setting,value
CNC(=O)c1ccc(N2C(=S)N(c3cnc(C#N)c(C(F)(F)F)c3)C(=O)C23CCC3)cc1F [apalutamide],"Median metastasis-free survival (95% CI), month","[1]; Overall SPARTAN Trial, N = 806",40.5 month
same,"Median overall survival (95% CI), month","[1]; Overall SPARTAN Trial, N = 806",73.9 month
same,"metastasis-free survival (MFS), effect of adding apalutamide to ADT",[1]; [3],significantly improved
same,"second progression-free survival (PFS2), effect of adding apalutamide to ADT",[1]; [3],significantly improved
same,"time to symptomatic progression, effect of adding apalutamide to ADT",[1]; [3],significantly improved
same,"overall survival (OS), effect of adding apalutamide to ADT compared to placebo","[1]; overall SPARTAN study, in words, median follow up of 52 months",significantly improved; also recorded: significant extension
same,"Median overall survival (95% CI), month","[2]; MMAI Biomarker Cohort, N = 311",65.1 month
same,MFS hazard ratio (HR) for apalutamide compared to placebo,"[2]; MMAI high risk group, metastasis-free survival, with ongoing ADT",0.19
same,OS hazard ratio (HR) for apalutamide compared to placebo,"[2]; MMAI high risk group, overall survival",0.6
same,PFS2 hazard ratio (HR) for apalutamide compared to placebo,[2]; MMAI high risk group,0.47
same,PFS2 hazard ratio (HR) for apalutamide compared to placebo,"[2]; MMAI high risk group, listed as APA",0.76
same,"MFS HR, variable Treatment, Cox regression univariate analysis",[2]; [4],0.28
same,"PFS2 HR, variable Treatment, Cox regression univariate analysis",[2]; [4],0.55
same,"OS HR, variable Treatment, Cox regression univariate analysis","[2]; all patients of analysis cohort, listed as Treatment",0.7
same,"MFS HR, variable Treatment, Cox regression multivariable analysis",[2]; [5],0.61
same,"OS HR, variable Treatment, Cox regression multivariable analysis",[2]; [5],0.97
same,"PFS2 HR, variable Treatment, Cox regression multivariable analysis",[2]; [5],0.74
same,"MFS HR, variable Treatment, Cox regression multivariable analysis",[2]; [6],1.72
same,"OS HR, variable Treatment, Cox regression multivariable analysis",[2]; [6],1.98
same,"PFS2 HR, variable Treatment, Cox regression multivariable analysis",[2]; [6],2.28
